Values joined by “and” are separate entries in the source; they are usually repeats but may differ in a detail not shown here. Equal entries are not always repeated. Marks after values point to notes of the source that are not given here.
Tests used:
CHMC cells = test: anti-IgE-induced Ca2+ flux in CHMC cells; type: cell-based, human; settings: 10 μM
[1] = tested on: bone marrow derived mast cells (BMMC); test: BMMC high cell density IgE activation: histamine; type: cell-based, mouse; settings: High Density; read-out: BMMC anti-IgE histamine
Experimental: After sensitizing, cells are counted, pelleted (1000 rpm, 5-10 minutes), and resuspended at 1-3×10^6 cells/ml in MT buffer. Add 100 ul of cell suspension to each well and 100 ul of compound dilutions. The final vehicle concentration is 0.5% DMSO. Incubate at 37° C. (5% CO2) for 1 hour. After 1 hour of compound treatment, stimulate cells with 6× stimulus (60 ng/ml DNP-BSA). Mix wells with the cells and allow plates to incubate at 37° C. (5% CO2) for one hour. After 1 hour incubation, pellet cells (10 minutes, 1000 RPM) and collect 200 ul per well of the supernatant, being careful not to disturb pellet, and transfer to a clean tube or 96-well plate. Place the supernatant plate on ice. During the 4-5 hour step (see next) perform the hexosiminidase assay. Resuspend cell pellet in 240 ul WEI-conditioned media containing 0.5% DMSO and corresponding concentration of compound. Incubate BMMC cells for 4-5 hours at 37° C. (5% CO2). After incubation, pellet cells (1000 RPM, 10 minutes) and collect 225 ul per well and place in −80° C. until ready to perform ELISAS. ELISAS are performed on appropriately diluted samples (determined empirically for each donor cell population so that the sample measurement falls within the standard curve) following the supplier's instructions.

[2] = Mouse model of allergic asthma (ovalbumin); type: in vivo; settings: intranasal, 10 consecutive days (Day 7 through Day 16), 20 mg/kg
Description: Mice are sensitized to ovalbumin (chicken protein) in the presence of an adjuvant (Alum) by the intraperitoneal route on day 0 and day 7. One week later, mice are challenged intranasally with ovalbumin on Days 14, 15 and 16 (more stringent model) or on Day 14 (less stringent model). This sensitization and challenge regimen leads to airway hyperresponsiveness and inflammation in the lungs, which are two dominant characteristics of human allergic asthma. In the mouse model, the in vivo airway responses are measured using a whole body plethysmograph which determines the PENH (enhanced Pause, Buxco Electronics). The PENH is a dimensionless value comprised of the peak inspiratory flow (PIF), peak expiratory flow (PEF), time of inspiration, time of expiration and relaxation time, and is considered a validated parameter of airway responsiveness. Responses to allergen challenge (OVA) are compared with animals challenged with saline only. Twenty-four hours after challenge, mice are exposed to increasing doses of methacholine (muscarinic receptor agonist) which results in smooth muscle contraction. […] In addition, a cellular infiltrate in the airway is observed in ovalbumin challenged mice when compared with the saline challenged mice. This cellular infiltrate is mainly characterized by eosinophils, but a smaller influx of neutrophils and mononuclear cells is also present. […]

[3] = Mouse experimental autoimmune encephalomyelitis (EAE); type: in vivo; settings: for mice relapsed: from day of immunization
Experimental: In the SJL murine model of EAE, each mouse is sensitized with PLP/CFA. […] In a treatment protocol, at onset of disease, animals are separated to achieve groups with a similar mean clinical score at onset and administered vehicle or various dose frequencies of test articles via oral gavage. In both protocols, clinical scores are monitored daily, and body weights are measured twice weekly.

[4] = Mouse collagen antibody-induced arthritis (CAIA); type: in vivo, Balb/c mice
Experimental: Arthrogen-CIA® Arthritis-inducing Monoclonal Antibody Cocktail (Chemicon International Inc.) is administered intravenously to Balb/c mice (2mg/mouse) on Day 0. Forty-eight hours later, 100 μl of LPS (25 μg) is injected intraperitoneally. On Day 4, toes may appear swollen. By Day 5, one or two paws (particular the hind legs) begin to appear red and swollen. On Day 6, and thereafter, red and swollen paws will remain for at least 1-2 weeks. During the study, the clinical signs of inflammation are scored to evaluate the intensity of edema in the paws. The severity of arthritis is recorded as the sum score of both hind paws for each animal (possible maximum score of 8). The degree of inflammation with involved paws is evaluated by measurement of diameter of the paws. Body weight changes are monitored.
Animals are treated at the time of induction of arthritis, beginning on Day 0. Test compounds and control compounds are administered once a day (q.d.) or twice a day (b.i.d.), via per os (PO), depending on previously established PK profiles.
At the end of the study (1-2 weeks after induction of arthritis), mice are euthanized and the paws are transected at the distal tibia using a guillotine and weighed. The mean±standard error of the mean (SEM) for each group is determined each day from individual animal clinical scores, and hind paw weights for each experimental group are calculated and recorded at study termination. Histopathological evaluation of paws are obtained.

[5] = Non-GLP pilot oral toxicity studies in the mouse
Experimental: Several non-GLP pilot toxicity studies have been conducted in rodents. […] In a 14-day oral toxicity study in the mouse was conducted with doses of 100, 300 and 1000 mg/kg.

[6] = 100 mg/kg 1x/day starting on day of immunization
[7] = 100 mg/kg 2x/day starting on day of immunization
[8] = 200 mg/kg 2x/day starting on day of onset

SMILES: Oc1cccc(Nc2ncc(F)c(Nc3cccc(O)c3)n2)c1 [Compound R921218]
- anti-IgE-induced Ca2+ flux (CHMC cells): inhibited
- IC50 [1]: 203 nM

SMILES: CNC(=O)COc1cccc(Nc2ncc(F)c(Nc3ccc4c(n3)NC(=O)CO4)n2)c1 [Compound R921304]
- ovalbumin-induced airway hyperresponsiveness to methacholine [2]: able to inhibit

SMILES: Nc1cccc(Nc2ncc(F)c(Nc3cccc(N)c3)n2)c1 [Compound R921302]
- Incidence [3, 6]: 10/10
- Mortality [3, 6]: 0/10
- Onset [3, 6]: 12.3 ± 0.7
- Peak (mean clinical score) [3, 6]: 4.3+1.3 and 4.3 ± 1.3
- Incidence [3, 7]: 10/10
- Mortality [3, 7]: 3/10^a
- Onset [3, 7]: 13.0 ± 1.2^b
- Peak (mean clinical score) [3, 7]: 4.3+1.4 and 4.3 ± 1.4
- mice relapsed ([3]; 100 mg/kg twice daily group): None
- mice relapsed ([3]; 100 mg/kg/day group): 3/8
- Incidence [3, 8]: 12/12
- Mean score at treatment [3, 8]: 3.4 ± 1.6
- Mortality [3, 8]: 1/12
- Peak [3, 8]: 4.3 ± 0.7
- Relapses [3, 8]: 2/12
- Group Average Histopathological Score (0-15), average total score ± SD ([4]; 100 mg/kg, twice daily): 5.1 ± 1.9
- reduction of paw weight compared with vehicle control group ([4]; end of study): 99.9%
- histopathological evaluation of the resected paws ([4]; mouse, in vivo): lesions of lesser severity
- NOAEL (no observed adverse effect level) ([5]; 14-day oral toxicity study): 100 mg/kg
- tolerability, 100 mg/kg q.d. or b.i.d. ([5]; in vivo, po, 100 mg/kg): well tolerated
- findings at 300 mg/kg ([5]; in vivo, po, 300 mg/kg): histopathological changes in the vulva
- tolerability, 300 mg/kg q.d. or b.i.d. ([5]; in vivo, po, 300 mg/kg): not tolerated
- tolerability, 1000 mg/kg ([5]; in vivo, po, 1000 mg/kg): not tolerated
- tolerability, oral 1000 mg/kg ([5]; in vivo, po, 1000 mg/kg): tolerated
